Consider four compounds from US6403580B1, “Quinazolines, pharmaceutical compositions containing these compounds, their use and processes for preparing them” (Boehringer Ingelheim Pharma KG, priority 2000, dated 2002).

The target in series [1] is T1, human EGF-R (Homo sapiens, UniProt P00533).
T1 construct: expressed in transfected cells; host or cells: F/L-HERc cells (murine IL-3-dependent FDC-P1 line, transduced with retroviral vector LXSN carrying human EGF-R cDNA; packaging line GP+E86)
The series can be described thus: Inhibition of EGF-dependent proliferation of F/L-HERc cells. The format is cell-based. The following applies: F/L-HERc cells (murine IL-3-dependent line expressing human EGF-R), stimulated with EGF 20 ng/ml, 48 hours, Cell Titer 96 assay. The text has this: A cell line of murine origin dependent on interleukin-3-(IL-3) which was genetically modified to express functional human EGF-R was used here. The proliferation of these cells known as F/L-HERc can therefore be stimulated either by murine IL-3 or by EGF (cf. von Rüden, T. et al. in EMBO J . 7, 2749-2756 (1988) and Pierce, J. H. et al. in Science 239, 628-631 (1988)).
The starting material used for the F/L-HERc cells was the cell line FDC-P1, the production of which has been described by Dexter, T. M. et al. in J. Exp. Med. 152, 1036-1047 (1980). Alternatively, however, other growth-factor-dependent cells may also be used (cf. for example Pierce, J. H. et al. in Science 239, 628-631 (1988), Shibuya, H. et al. in Cell 70, 57-67 (1992) and Alexander, W. S. et al. in EMBO J. 10, 3683-3691 (1991)). […]
In order to determine the inhibitory activity of the compounds according to the invention the relative cell number was measured in O.D. units using the Cell Titer 96™ Aqueous Non-Radioactive Cell Proliferation Assay (Promega). […]

T1 sequence (P00533 25-1210): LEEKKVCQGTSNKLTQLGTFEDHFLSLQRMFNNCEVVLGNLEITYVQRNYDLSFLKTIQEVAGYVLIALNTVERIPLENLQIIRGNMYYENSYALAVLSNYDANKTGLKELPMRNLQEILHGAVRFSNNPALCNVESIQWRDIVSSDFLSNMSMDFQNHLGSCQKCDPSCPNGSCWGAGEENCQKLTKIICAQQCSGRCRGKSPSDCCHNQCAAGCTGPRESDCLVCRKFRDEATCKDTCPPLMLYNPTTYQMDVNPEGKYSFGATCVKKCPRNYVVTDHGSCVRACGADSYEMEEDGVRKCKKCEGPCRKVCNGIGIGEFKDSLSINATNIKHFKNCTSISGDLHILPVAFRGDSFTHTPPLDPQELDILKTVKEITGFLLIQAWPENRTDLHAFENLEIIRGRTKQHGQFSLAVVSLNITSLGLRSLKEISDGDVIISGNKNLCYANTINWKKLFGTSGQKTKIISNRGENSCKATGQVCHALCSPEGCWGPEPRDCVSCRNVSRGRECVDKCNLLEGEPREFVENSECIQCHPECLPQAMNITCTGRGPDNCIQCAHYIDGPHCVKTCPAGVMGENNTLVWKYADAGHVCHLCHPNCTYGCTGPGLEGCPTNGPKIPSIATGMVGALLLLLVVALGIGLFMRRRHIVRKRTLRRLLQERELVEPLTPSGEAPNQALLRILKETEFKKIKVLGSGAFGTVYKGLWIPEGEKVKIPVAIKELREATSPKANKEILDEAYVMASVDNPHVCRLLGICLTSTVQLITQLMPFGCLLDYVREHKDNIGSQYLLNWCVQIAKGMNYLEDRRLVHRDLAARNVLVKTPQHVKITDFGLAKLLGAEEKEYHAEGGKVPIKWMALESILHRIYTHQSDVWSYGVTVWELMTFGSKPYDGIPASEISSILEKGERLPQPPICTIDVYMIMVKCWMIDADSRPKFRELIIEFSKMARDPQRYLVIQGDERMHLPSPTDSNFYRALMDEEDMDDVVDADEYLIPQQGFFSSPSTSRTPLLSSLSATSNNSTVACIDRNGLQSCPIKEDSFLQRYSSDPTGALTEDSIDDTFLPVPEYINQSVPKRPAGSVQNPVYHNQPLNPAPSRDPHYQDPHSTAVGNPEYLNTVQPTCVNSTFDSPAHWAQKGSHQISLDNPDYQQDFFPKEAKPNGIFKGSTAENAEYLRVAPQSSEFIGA

For the compound `C=CC(=O)Nc1cc2c(Nc3ccc(F)c(Cl)c3)ncnc2cc1OCCN(C)C1COC(=O)C1` (stereo not shown) [Example 1(11), 4-[(3-chloro-4-fluorophenyl)amino]-7-{2-[N-(2-oxo-tetrahydrofuran4-yl)-N-methyl-amino]-ethoxy}-6-[(vinylcarbonyl)amino]-quinazoline], the melting point is 195 to 199 °C.

As for `C=CC(=O)Nc1cc2c(N[C@H](C)c3ccccc3)ncnc2cc1OCCN1CC(=O)OC(C)(C)C1` [1(2), 4-[(R)-(1-phenyl-ethyl)amino]-7-[2-(2,2-dimethyl-6-oxo-morpholin-4-yl)-ethoxy]-6-[(vinylcarbonyl)amino]-quinazoline], in series [1], the IC50 came out at 0.4 nM.

In turn, `C=CC(=O)Nc1cc2c(Nc3ccc(F)c(Cl)c3)ncnc2cc1OCCCCN1CC(=O)OC(C)(C)C1` [Example 1(15), 4-[(3-chloro-4-fluorophenyl)amino]-7-[4-(2,2-dimethyl-6-oxo-morpholin-4-yl)-butyloxy]-6-[(vinylcarbonyl)amino]-quinazoline] registered a melting point of 110 to 112 °C.

The compound `C=CC(=O)Nc1cc2c(Nc3ccc(F)c(Cl)c3)ncnc2cc1OCCN1CC(=O)OC(C)(C)C1` [Example 1(1), 4-[(3-chloro-4-fluoro-phenyl)amino]-7-[2-(2,2-dimethyl-6-oxo-morpholin-4-yl)-ethoxy]-6-[(vinylcarbonyl)amino]-quinazoline] returned a melting point of 182.5 to 184 °C.
